The test system of the assay is A549 cells. The assay is described as follows: Matrigel invasion assay (modified Boyden chamber), A549 cells. The class given is cell-based. Conditions: 100 to 800 ng/ml. The protocol:
The in vitro invasiveness of H1299 or A549 cells in the presence of various concentrations of NRC compounds (as determined by MTT assay) was assessed using a modified Boyden chamber assay. Cells were treated with these compounds for 48 h. 1×10^6 cells were suspended in 600 μl of serum-free medium supplemented with 0.2% BSA and placed in the upper compartment of the transwell chambers (Corning Costar Fischer Scientific Cat #07-200-158, Pittsburgh Pa.) coated with Matrigel (0.7 mg/ml). The lower compartment of the chamber was filled with 200 μl of serum-medium and the cells were allowed to migrate for 24 h. After incubation, the cells were fixed and stained with Hema-3 and quantified as previously described (Mohanam, et al. 1993). The migrated cells were quantified as percent invasion.
Matrigel invasion was performed as described in materials and methods. […] Using H1299 cells similar retardation patterns of invasion was observed.

Take `C#Cc1cccc(Nc2ncnc3cc(OCCOC)c(OCCOC)cc23)c1` [Erlotinib]: the invasiveness result is listed as “decreased invasiveness in a dose dependent manner”.

For the origin of these results see US8080558B2, “4-(tetrazol-5-yl)-quinazoline derivatives as anti-cancer agent” (Natco Pharma Limited, priority 2007, dated 2011).
